Measurements as given in PMC5466365 (Journal of the American Chemical Society, 2016).

What was measured:
Format in all cases: biochemical
[1] = target: T1, MeHNL (Manihot esculenta, UniProt P52705); assay: benzaldehyde release, A280; conditions: 50 mM citrate pH 5.0
[2] = target: T2, HbHNL (Hevea brasiliensis, UniProt P52704); assay: benzaldehyde release, A280; conditions: 50 mM citrate pH 5.0
[3] = target: T1, MeHNL; conditions: 5 mM citrate phosphate pH 5
[4] = target: T2, HbHNL; conditions: 5 mM citrate phosphate pH 5

T1 sequence (P52705 2-258): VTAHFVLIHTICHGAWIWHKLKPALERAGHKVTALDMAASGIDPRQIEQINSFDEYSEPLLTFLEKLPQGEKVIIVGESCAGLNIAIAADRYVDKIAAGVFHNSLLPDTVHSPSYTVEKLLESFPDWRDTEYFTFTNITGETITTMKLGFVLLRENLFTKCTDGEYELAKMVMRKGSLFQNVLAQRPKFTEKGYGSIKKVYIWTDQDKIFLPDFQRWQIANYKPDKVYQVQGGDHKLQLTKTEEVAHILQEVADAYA
T2 sequence (P52704 whole entry): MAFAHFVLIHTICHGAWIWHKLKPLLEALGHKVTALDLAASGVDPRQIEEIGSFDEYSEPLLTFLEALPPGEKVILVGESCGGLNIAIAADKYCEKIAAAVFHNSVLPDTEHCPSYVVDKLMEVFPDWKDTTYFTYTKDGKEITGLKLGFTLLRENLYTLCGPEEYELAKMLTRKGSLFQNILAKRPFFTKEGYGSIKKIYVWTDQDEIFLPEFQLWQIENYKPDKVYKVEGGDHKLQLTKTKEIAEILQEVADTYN

Compound | benzaldehyde release, A280 [1] | benzaldehyde release, A280 [2] | HCN release, modified König reaction [3] | HCN release, modified König reaction [4]
N#CC(O)c1ccccc1 (racemic) [mandelonitrile] | They also efficiently cleaved their unnatural substrate mandelonitrile | They also efficiently cleaved their unnatural substrate mandelonitrile |  | 
CC(C)(O)C#N [acetone cyanohydrin] |  |  | The best substrate is the natural one, acetone cyanohydrin | The best substrate is the natural one, acetone cyanohydrin
